Measured values as given in patent US20100267561A1, “HERBICIDAL PYRIDAZINONE DERIVATIVES” (priority 2007, published 2010).

Legend:
Experiment in all cases: Test B pre-/postemergence plant response
Assay type in all cases: in vivo
[1] = tested on: blackgrass (Alopecurus myosuroides)
Procedure, shortened: (§1)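 Preemergence and postemergence (plants 2-18 cm, 1- to 4-leaf stage) applications used test chemicals in a non-phytotoxic solvent with surfactant. Plants were held in a greenhouse 13 to 15 days, then rated visually against controls on a 0-100 scale (0 no effect, 100 complete control).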

[2] = tested on: catchweed bedstraw (Galium aparine); details: Preemergence
Procedure, shortened: as §1

[3] = tested on: common (oilseed) sunflower (Helianthus annuus); details: Preemergence
Procedure, shortened: as §1

corn (Zea mays) = details: for Corn plant response rating: 8 g ai/ha
Procedure, shortened: as §1

[4] = tested on: downy bromegrass (Bromus tectorum); details: for Bromegrass, Downy plant response rating: 8 g ai/ha
Procedure, shortened: as §1

[5] = tested on: eastern black (E.B.) nightshade (Solanum ptycanthum); details: Preemergence
Procedure, shortened: as §1

[6] = tested on: giant foxtail (Setaria faberii); details: for Foxtail, Giant plant response rating: 8 g ai/ha
Procedure, shortened: as §1

[7] = tested on: green foxtail (Setaria viridis); details: for Foxtail, Green plant response rating: 8 g ai/ha
Procedure, shortened: as §1

[8] = tested on: johnsongrass (Sorghum halepense); details: for Johnsongrass plant response rating: 8 g ai/ha
Procedure, shortened: as §1

kochia (Kochia scoparia) = details: for Kochia plant response rating: 8 g ai/ha
Procedure, shortened: as §1

[9] = tested on: morningglory (Ipomoea coccinea); details: for Morningglory plant response rating: 8 g ai/ha
Procedure, shortened: as §1

[10] = tested on: pigweed (Amaranthus retroflexus); details: for Pigweed plant response rating: 8 g ai/ha
Procedure, shortened: as §1

[11] = tested on: surinam grass (Brachiaria decumbens); details: for Surinam Grass plant response rating: 8 g ai/ha
Procedure, shortened: as §1

[12] = tested on: woolly cupgrass (Eriochloa villosa); details: for Cupgrass, Woolly plant response rating: 8 g ai/ha
Procedure, shortened: as §1

[13] = Postemergence, 16 g ai/ha, scale 0 to 100
[14] = Postemergence, 31 g ai/ha, scale 0 to 100, 0 no effect, 100 complete control
[15] = Postemergence, 62 g ai/ha, scale 0 to 100, 0 no effect, 100 complete control
[16] = Preemergence, 16 g ai/ha, scale 0 to 100 (0 no effect, 100 complete control)
[17] = Preemergence, 31 g ai/ha, 0 to 100 scale, 0 no effect, 100 complete control
[18] = Preemergence, 62 g ai/ha, scale 0 to 100
[19] = 16 g ai/ha, scale 0 to 100 (0 no effect, 100 complete control)
[20] = 31 g ai/ha, 0 to 100 scale, 0 no effect, 100 complete control

Cc1cc(-c2ccc(Cl)cc2)nn1-c1c(OC(=O)c2cccc(Cl)c2)cnn(C)c1=O [Compound 32]
Blackgrass plant response rating ([1]; 8 g ai/ha, postemergence, 0-100 scale): 30
Plant response rating, Blackgrass [1, 13]: 35
Plant response rating, Blackgrass [1, 14]: 70
Plant response rating, Blackgrass [1, 15]: 70
Plant response rating, Blackgrass [1, 16]: 85
Plant response rating, Blackgrass [1, 17]: 95
Plant response rating, Blackgrass [1, 18]: 98
Plant response rating, Galium [2, 19]: 0
Plant response rating, Galium [2, 20]: 0
Plant response rating, Galium ([2]; 62 g ai/ha, scale 0 to 100): 0
Galium plant response rating ([2]; 8 g ai/ha, scale 0 to 100): 0
Plant response rating, Sunflower [3, 19]: 0
Plant response rating, Sunflower [3, 20]: 0
Plant response rating, Sunflower ([3]; 62 g ai/ha, scale 0 to 100): 0
Sunflower plant response rating ([3]; 8 g ai/ha, scale 0 to 100): 0
Corn plant response rating (corn (Zea mays); postemergence, 0-100 scale): 0
Plant response rating, Corn (corn (Zea mays); [13]): 0
Plant response rating, Corn (corn (Zea mays); [14]): 0
Plant response rating, Corn (corn (Zea mays); [15]): 0
Plant response rating, Corn (corn (Zea mays); [16]): 45
Plant response rating, Corn (corn (Zea mays); [17]): 60
Plant response rating, Corn (corn (Zea mays); [18]): 95
Corn plant response rating (corn (Zea mays); Preemergence, scale 0 to 100): 0
Bromegrass, Downy plant response rating ([4]; postemergence, 0-100 scale): 5
Plant response rating, Bromegrass, Downy [4, 13]: 10
Plant response rating, Bromegrass, Downy [4, 14]: 45
Plant response rating, Bromegrass, Downy [4, 15]: 60
Plant response rating, Bromegrass, Downy [4, 16]: 0
Plant response rating, Bromegrass, Downy [4, 17]: 0
Plant response rating, Bromegrass, Downy [4, 18]: 75
Bromegrass, Downy plant response rating ([4]; Preemergence, scale 0 to 100): 0
Plant response rating, Nightshade, E. B. [5, 19]: 0
Plant response rating, Nightshade, E. B. [5, 20]: 0
Plant response rating, Nightshade, E. B. ([5]; 62 g ai/ha, scale 0 to 100): 0
Nightshade, E. B. plant response rating ([5]; 8 g ai/ha, scale 0 to 100): 0
Foxtail, Giant plant response rating ([6]; postemergence, 0-100 scale): 75
Plant response rating, Foxtail, Giant [6, 13]: 80
Plant response rating, Foxtail, Giant [6, 14]: 98
Plant response rating, Foxtail, Giant [6, 15]: 100
Plant response rating, Foxtail, Giant [6, 16]: 95
Plant response rating, Foxtail, Giant [6, 17]: 100
Plant response rating, Foxtail, Giant [6, 18]: 100
Foxtail, Giant plant response rating ([6]; Preemergence, scale 0 to 100): 85
Foxtail, Green plant response rating ([7]; postemergence, 0-100 scale): 60
Plant response rating, Foxtail, Green [7, 13]: 60
Plant response rating, Foxtail, Green [7, 14]: 90
Plant response rating, Foxtail, Green [7, 15]: 95
Plant response rating, Foxtail, Green [7, 16]: 100
Plant response rating, Foxtail, Green [7, 17]: 100
Plant response rating, Foxtail, Green [7, 18]: 100
Foxtail, Green plant response rating ([7]; Preemergence, scale 0 to 100): 70
Johnsongrass plant response rating ([8]; postemergence, 0-100 scale): 50
Plant response rating, Johnsongrass [8, 13]: 70
Plant response rating, Johnsongrass [8, 14]: 98
Plant response rating, Johnsongrass [8, 15]: 98
Plant response rating, Johnsongrass [8, 16]: 75
Plant response rating, Johnsongrass [8, 17]: 85
Plant response rating, Johnsongrass [8, 18]: 90
Johnsongrass plant response rating ([8]; Preemergence, scale 0 to 100): 65
Kochia plant response rating (kochia (Kochia scoparia); postemergence, 0-100 scale): 0
Plant response rating, Kochia (kochia (Kochia scoparia); [13]): 0
Plant response rating, Kochia (kochia (Kochia scoparia); [14]): 0
Plant response rating, Kochia (kochia (Kochia scoparia); [15]): 0
Plant response rating, Kochia (kochia (Kochia scoparia); [16]): 0
Plant response rating, Kochia (kochia (Kochia scoparia); [17]): 0
Plant response rating, Kochia (kochia (Kochia scoparia); [18]): 0
Kochia plant response rating (kochia (Kochia scoparia); Preemergence, scale 0 to 100): 0
Morningglory plant response rating ([9]; postemergence, 0-100 scale): 0
Plant response rating, Morningglory [9, 13]: 0
Plant response rating, Morningglory [9, 14]: 0
Plant response rating, Morningglory [9, 15]: 0
Plant response rating, Morningglory [9, 16]: 0
Plant response rating, Morningglory [9, 17]: 0
Plant response rating, Morningglory [9, 18]: 0
Morningglory plant response rating ([9]; Preemergence, scale 0 to 100): 0
Pigweed plant response rating ([10]; postemergence, 0-100 scale): 0
Plant response rating, Pigweed [10, 13]: 0
Plant response rating, Pigweed [10, 14]: 0
Plant response rating, Pigweed [10, 15]: 0
Plant response rating, Pigweed [10, 16]: 0
Plant response rating, Pigweed [10, 17]: 0
Plant response rating, Pigweed [10, 18]: 0
Pigweed plant response rating ([10]; Preemergence, scale 0 to 100): 0
Surinam Grass plant response rating ([11]; postemergence, 0-100 scale): 65
Plant response rating, Surinam Grass [11, 13]: 70
Plant response rating, Surinam Grass [11, 15]: 98
Plant response rating, Surinam Grass [11, 16]: 75
Plant response rating, Surinam Grass [11, 17]: 100
Plant response rating, Surinam Grass [11, 18]: 100
Surinam Grass plant response rating ([11]; Preemergence, scale 0 to 100): 70
Cupgrass, Woolly plant response rating ([12]; postemergence, 0-100 scale): 75
Plant response rating, Cupgrass, Woolly [12, 13]: 85
Plant response rating, Cupgrass, Woolly [12, 14]: 100
Plant response rating, Cupgrass, Woolly [12, 15]: 100
Plant response rating, Cupgrass, Woolly [12, 16]: 70
Plant response rating, Cupgrass, Woolly [12, 17]: 80
Plant response rating, Cupgrass, Woolly [12, 18]: 85
Cupgrass, Woolly plant response rating ([12]; Preemergence, scale 0 to 100): 55
